In one data set the test system is A549. Kind of data set: Antiproliferative activity against human A549 cells expressing wild type EGFR assessed as reduction in cell viability after 72 hrs by MTT assay. The class given is functional, cell-based. As to conditions: A549, 72 h.
Data set [1] can be described thus: Antiproliferative activity against human SPCA1 cells expressing wild type EGFR assessed as reduction in cell viability after 72 hrs by MTT assay. Conditions: SPCA1, 72 h. The class given is functional, cell-based.
A short description of data set [2]: Antitumor activity against mouse C26 cells xenografted in BALB/c mouse assessed as tumor growth inhibition at 50 mg/kg, po administered once daily and measured every two days by caliper method relative to control. The class given is functional. As to conditions: 48 h, read-out: TGI.
The nature of data set [3]: Toxicity in nude BALB/c mouse xenografted with C26 cells assessed as abnormalities in liver size and morphology at 50 mg/kg, po administered once daily. It counts as organism-based. Conditions: in vivo.
Data set [4] can be described thus: Toxicity in nude BALB/c mouse xenografted with C26 cells assessed as abnormalities in heart size and morphology at 50 mg/kg, po administered once daily. It counts as organism-based. Conditions: in vivo.
The subject of data set [5] is NCI-H460. Briefly: Induction of cell cycle arrest in human NCI-H460 cells assessed as accumulation at G2/M phase at 1 uM incubated for 24 hrs by propidium iodide staining based flow cytometry (reference value: 16.71 %). It counts as functional.
The test system of data set [6] is NCI-H460. Kind of data set: Induction of cell cycle arrest in human NCI-H460 cells assessed as accumulation at S phase at 1 uM incubated for 24 hrs by propidium iodide staining based flow cytometry (reference value: 29.32 %). The class given is functional.
The test system of data set [7] is NCI-H460. Briefly: Induction of cell cycle arrest in human NCI-H460 cells assessed as accumulation at G0/G1 phase at 5 uM incubated for 24 hrs by propidium iodide staining based flow cytometry (reference value: 53.97 %). The class given is functional. (In flow cytometry, cells or beads pass a laser one at a time.)
The subject of data set [8] is NCI-H460. Kind of data set: Induction of cell cycle arrest in human NCI-H460 cells assessed as accumulation at G2/M phase at 5 uM incubated for 24 hrs by propidium iodide staining based flow cytometry (reference value: 16.71 %). It counts as functional.
The subject of data set [9] is NCI-H460. Briefly: Induction of cell cycle arrest in human NCI-H460 cells assessed as accumulation at S phase at 5 uM incubated for 24 hrs by propidium iodide staining based flow cytometry (reference value: 29.32 %). It counts as functional.
The subject of data set [10] is NCI-H460. Briefly: Induction of apoptosis in human NCI-H460 cells assessed as viable cells at 1 uM after 48 hrs by Annexin V-FITC/propidium iodide staining based flow cytometric analysis (reference value: 91.528 %). As to conditions: read-out: Activity. The class given is functional.
In data set [11] the test system is NCI-H460. Kind of data set: Induction of apoptosis in human NCI-H460 cells assessed as necrotic cells at 1 uM after 48 hrs by Annexin V-FITC/propidium iodide staining based flow cytometric analysis (reference value: 0.498 %). The class given is functional.
Data set [12] relates to NCI-H460. Briefly: Induction of apoptosis in human NCI-H460 cells assessed as late apoptotic cells at 2 uM after 48 hrs by Annexin V-FITC/propidium iodide staining based flow cytometric analysis (reference value: 3.995 %). The class given is functional.
The test system of data set [13] is NCI-H460. Kind of data set: Induction of apoptosis in human NCI-H460 cells assessed as early apoptotic cells at 10 uM after 48 hrs by Annexin V-FITC/propidium iodide staining based flow cytometric analysis (reference value: 3.980 %). The class given is functional.
For data set [14], the system named is NCI-H460. Kind of data set: Induction of apoptosis in human NCI-H460 cells assessed as late apoptotic cells at 10 uM after 48 hrs by Annexin V-FITC/propidium iodide staining based flow cytometric analysis (reference value: 3.995 %). The class given is functional.
Data set [15] has as its system NCI-H460. Briefly: Induction of apoptosis in human NCI-H460 cells assessed as necrotic cells at 10 uM after 48 hrs by Annexin V-FITC/propidium iodide staining based flow cytometric analysis (reference value: 0.498 %). It counts as functional.

SMILES strings stand for the structures.

Results on 1 compound are retold here after ChEMBL document CHEMBL4732067, “Synthesis and evaluation of new compounds bearing 3-(4-aminopiperidin-1-yl)methyl magnolol scaffold as anticancer agents for the treatment of non-small cell lung cancer via targeting autophagy” (Eur J Med Chem, 2021).

The IC50 is the concentration at which inhibition is half-maximal.

On to `C=CCc1ccc(OC(C)C)c(-c2cc(CC=C)cc(CN3CCC(N)CC3)c2O)c1`, for which the values for the IC50 (in the data set on A549; in data set [1]) were 910 nM and 1080 nM, respectively. Also, the inhibition in vivo at 50 mg/kg in data set [2] was 65.4%. Besides, the Activity entry in data set [3] is “Non-Toxic”; in [4], “Non-Toxic”; in the data set with NCI-H460 [5], 19.64%; with NCI-H460 [6], 23.89%; in the data set on NCI-H460 [7], 59.89%; in the data set with NCI-H460 [8], 17.5%. Also, the Activity turned out to be 22.61% with NCI-H460 [9]; 0.394% in the data set with NCI-H460 [11]; 4.926% in the data set on NCI-H460 [12]; 34.82% in the data set on NCI-H460 [13]; 33.48% in the data set with NCI-H460 [14]; 1.58% with NCI-H460 [15]. Besides, in the data set on NCI-H460 [10], the viability at 1 µM amounted to 91.1%.
